Some test systems named below: SK-MEL-28; SNB-75; M14; 786-0; A549; OVCAR-3; HL-60; Malme-3M; UO-31; CCRF-CEM; ACHN; KM12; IGROV-1; RPMI-8226; HCT-15.
Common to all, as to assay: growth of human tumour cells (NCI), 48 h

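The compound was tested at five concentrations on cells cultured in 96-well plates, with a 48-hour exposure period. GI50 is the concentration that inhibits growth by half.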 Active and inactive are the calls of the source. No stated cut-off is given here; in the data, active = GI50 up to about 1.1 µM and inactive = higher.

Regarding `C=CCO[C@H]1CC[C@@]2(C)C(CC[C@]3(C)C2CC=C2[C@@H]4[C@@H](C)C(C)CC[C@]4(C(=O)O)CCC23C)C1(C)C` (stereo partly specified), the GI50 with SK-MEL-28 was 15.6 µM (inactive); in the test with SNB-75, 15.6 µM (inactive); in the test with M14, 17.5 µM (inactive); in the test on 786-0, 15.7 µM (inactive); in the test on A549 it was 16.4 µM (inactive); with OVCAR-3, 15.7 µM (inactive). For the same compound, the GI50 is 7.01 µM (inactive) with HL-60; 19.5 µM (inactive) in the test on Malme-3M; 15 µM (inactive) in the test on UO-31; 13.2 µM (inactive) in the test with CCRF-CEM; 15.4 µM (inactive) in the test on ACHN; 16.1 µM (inactive) in the test with KM12. Also, in the test on IGROV-1, the GI50 is 16.6 µM (inactive).
As to `CN(C)CCONC(=O)C12CC3CC(CC(C3)C1)C2`, the GI50 in the test with SK-MEL-28 is > 100 µM (inactive); in the test on RPMI-8226 it was > 100 µM (inactive); in the test on SNB-75 it was > 100 µM (inactive); with M14, > 100 µM (inactive); in the test with 786-0, > 100 µM (inactive); in the test with HCT-15, more than 100 µM. Also, the GI50 is > 100 µM (inactive) with A549; > 100 µM (inactive) in the test on OVCAR-3; > 100 µM (inactive) with HL-60; 0.02 µM (active) in the test with Malme-3M; > 100 µM (inactive) in the test with UO-31; > 100 µM (inactive) in the test with CCRF-CEM. Further, the GI50 in the test on ACHN, in the test with KM12 and in the test on IGROV-1 was > 100 µM (inactive) throughout.
Regarding `CCc1cccc(C(C)CC)c1/N=C(/NC(=O)c1ccccc1C(=O)N/C(=N/c1c(CC)cccc1C(C)CC)SC)SC` (stereo unspecified), the GI50 in the test on SK-MEL-28 is 45 µM (inactive); in the test on RPMI-8226, 30.1 µM (inactive); in the test on M14, 20 µM (inactive); in the test on 786-0, 49.3 µM (inactive); in the test on HCT-15 it was 40.1 µM; in the test with A549, 47.3 µM (inactive). The GI50 is 36.6 µM (inactive) in the test on OVCAR-3; 20.9 µM (inactive) in the test with HL-60; 48.5 µM (inactive) in the test on Malme-3M; 30.6 µM (inactive) in the test on UO-31; 27.5 µM (inactive) in the test with CCRF-CEM; 36.1 µM (inactive) in the test on ACHN. Further, the GI50 was 36 µM (inactive) with KM12 and 38.7 µM (inactive) in the test with IGROV-1.
Regarding `COc1c(CC(C)=O)ccc2c1C(=O)c1ccc(C=O)c(OC(C)=O)c1C2=O`, the GI50 in the test with SK-MEL-28 was 11 µM (inactive); in the test with RPMI-8226, 8.45 µM (inactive); in the test on SNB-75, 20.5 µM (inactive); with M14, 12 µM (inactive); with 786-0, 6.32 µM (inactive); in the test with HCT-15, 5.57 µM. The GI50 with A549 was 31.8 µM (inactive); with OVCAR-3 it was 13.1 µM (inactive); in the test with HL-60, 5.06 µM (inactive); in the test with Malme-3M, 12.7 µM (inactive); in the test on UO-31, 20.4 µM (inactive); in the test on CCRF-CEM it was 3.23 µM (inactive). Also, the GI50 in the test with ACHN was 15.1 µM (inactive); in the test with KM12, 14.6 µM (inactive); with IGROV-1, 18.9 µM (inactive).
`CCOc1ccccc1NC(=O)C(=O)c1c(O)c2ccc(O)cc2oc1=O`: the GI50 in the test on SK-MEL-28 was > 100 µM (inactive); in the test with SNB-75, > 100 µM (inactive); with M14, > 100 µM (inactive); in the test with 786-0, > 100 µM (inactive); in the test with HCT-15, more than 100 µM; in the test on A549, > 100 µM (inactive). Also, the GI50 in the test with OVCAR-3, in the test on HL-60, in the test on Malme-3M, in the test on UO-31, in the test with CCRF-CEM and in the test on ACHN was > 100 µM (inactive) each time. The GI50 in the test with KM12 and in the test on IGROV-1 was > 100 µM (inactive) each time.
Turning to `COc1cc(OC)c2c(c1)C(=O)C(CC(C)O)=CC2=O` (stereo unspecified), the GI50 in the test on SK-MEL-28 is 17.7 µM (inactive); in the test on RPMI-8226 it was 11.5 µM (inactive); with SNB-75, 25.8 µM (inactive); with M14 it was 18.5 µM (inactive); in the test on 786-0, 16.2 µM (inactive); in the test with HCT-15, 14.6 µM. The GI50 is 22.3 µM (inactive) with A549; 5.82 µM (inactive) in the test on OVCAR-3; 5.47 µM (inactive) in the test on HL-60; 22.7 µM (inactive) with Malme-3M; 16.3 µM (inactive) in the test on UO-31; 4.22 µM (inactive) with CCRF-CEM. Also, the GI50 in the test with ACHN is 16.6 µM (inactive); in the test with KM12, 19.5 µM (inactive); with IGROV-1 it was 18.2 µM (inactive).
As to `CCCC(C)n1c(C)nc2c1C(=O)c1ccccc1C2=O` (stereo unspecified), the GI50 with SK-MEL-28 is 33.7 µM (inactive); with SNB-75, 19.5 µM (inactive); in the test on M14, 34.6 µM (inactive); with 786-0, 19.9 µM (inactive); with HCT-15, 5.97 µM; in the test with A549, 21 µM (inactive). Besides, the GI50 in the test with OVCAR-3 was 25.9 µM (inactive); in the test on HL-60, 33.2 µM (inactive); in the test with Malme-3M, 23.8 µM (inactive); with UO-31, 24.7 µM (inactive); with CCRF-CEM it was 30.3 µM (inactive); in the test with ACHN, 27.8 µM (inactive). For the same compound, the values for the GI50 in the test on KM12 and in the test with IGROV-1 were 22.9 µM (inactive) and 37.4 µM (inactive), respectively.
For the compound `CC1CCC(C(C)(C)c2ccccc2)C(=O)C1` (stereo unspecified), the GI50 in the test with RPMI-8226 was 95.3 µM (inactive); in the test with SNB-75, > 100 µM (inactive); with M14 it was > 100 µM (inactive); in the test on 786-0, > 100 µM (inactive); in the test with HCT-15 it was more than 100 µM; with A549, > 100 µM (inactive). Further, the GI50 in the test with OVCAR-3 is > 100 µM (inactive); with HL-60, 25.6 µM (inactive); in the test with Malme-3M, > 100 µM (inactive); in the test on UO-31, 18.3 µM (inactive); in the test on CCRF-CEM, > 100 µM (inactive); with ACHN, > 100 µM (inactive). Further, the GI50 in the test on KM12 and in the test on IGROV-1 was > 100 µM (inactive) in each case.
Take `O=C1c2c(c(-c3ccccc3)c(-c3ccccc3)c(-c3ccccc3)c2-c2ccccc2)C(=O)N1c1cccc(Br)c1`: the GI50 in the test on RPMI-8226 is > 100 µM (inactive); in the test with SNB-75 it was > 100 µM (inactive); in the test with M14, 58.3 µM (inactive); in the test on 786-0, > 100 µM (inactive); with HCT-15 it was more than 100 µM; in the test on A549 it was > 100 µM (inactive). Moreover, the GI50 in the test on OVCAR-3, in the test with HL-60, in the test on Malme-3M, in the test on UO-31, in the test on CCRF-CEM and with KM12 was > 100 µM (inactive) each time. In addition, the GI50 with IGROV-1 is > 100 µM (inactive).
`Cc1nc2c(n1CCN(C)C)C(=O)c1ccccc1C2=O`: the GI50 was 53.6 µM (inactive) in the test with SK-MEL-28; 33.1 µM (inactive) with SNB-75; 11.8 µM (inactive) in the test with M14; 28 µM (inactive) in the test with 786-0; 12.8 µM in the test on HCT-15; 18.8 µM (inactive) in the test with A549. In addition, the GI50 in the test on OVCAR-3 was 7.03 µM (inactive); in the test with HL-60, 5.3 µM (inactive); in the test with Malme-3M it was 2.84 µM (inactive); with UO-31 it was 21 µM (inactive); in the test on CCRF-CEM it was 17.7 µM (inactive); in the test on ACHN, 14.8 µM (inactive). For the same compound, the values for the GI50 in the test on KM12 and in the test on IGROV-1 were 15.2 µM (inactive) and 13.4 µM (inactive), respectively.
Take `CC(C)(c1ccccc1)c1ccc(Oc2ccc3c(c2)-c2nc-3nc3[nH]c(nc4nc(nc5[nH]c(n2)c2ccc(Oc6ccc(C(C)(C)c7ccccc7)cc6)cc52)-c2cc(Oc5ccc(C(C)(C)c6ccccc6)cc5)ccc2-4)c2ccc(Oc4ccc(C(C)(C)c5ccccc5)cc4)cc32)cc1`: the GI50 in the test with SK-MEL-28 is > 100 µM (inactive); in the test with RPMI-8226 it was > 100 µM (inactive); with SNB-75 it was 27.8 µM (inactive); in the test on M14 it was > 100 µM (inactive); with 786-0 it was > 100 µM (inactive); in the test with A549 it was > 100 µM (inactive). The GI50 with HL-60, in the test on Malme-3M, in the test on UO-31, in the test on CCRF-CEM, in the test on ACHN and with KM12 was > 100 µM (inactive) each time. Also, in the test with IGROV-1, the GI50 is > 100 µM (inactive).
As for `O=C(NC(=O)c1cn(CCNCCO)c(=O)[nH]c1=O)OCc1ccccc1`, the GI50 with SK-MEL-28 is > 100 µM (inactive); in the test with RPMI-8226, > 100 µM (inactive); in the test on SNB-75, 45.9 µM (inactive); in the test on M14 it was > 100 µM (inactive); with 786-0, > 100 µM (inactive); in the test on HCT-15 it was more than 100 µM. For the same compound, the GI50 in the test with A549, with OVCAR-3, in the test on HL-60, with Malme-3M, with CCRF-CEM and in the test on ACHN was > 100 µM (inactive) in each case. Also, the GI50 in the test with KM12 and in the test on IGROV-1 was > 100 µM (inactive) throughout.
With `CCN1C(=O)C(=CN)C(=O)N(CC)C1=O`, the GI50 in the test on SK-MEL-28 is > 100 µM (inactive); with SNB-75, 14.7 µM (inactive); with M14 it was > 100 µM (inactive); with 786-0 it was > 100 µM (inactive); in the test on HCT-15, more than 100 µM; with A549, > 100 µM (inactive). Further, the GI50 with OVCAR-3 is > 100 µM (inactive); in the test with HL-60, > 100 µM (inactive); in the test on Malme-3M it was > 100 µM (inactive); in the test on UO-31, 58.2 µM (inactive); in the test with CCRF-CEM it was > 100 µM (inactive); in the test with ACHN it was > 100 µM (inactive). Also, the GI50 in the test with KM12 and with IGROV-1 was > 100 µM (inactive) throughout.
As to `Cc1ccc(S(=O)(=O)N/N=C/c2oc(-c3ccncc3)c(-c3ccncc3)c2[N+](=O)[O-])cc1`, the GI50 in the test on SK-MEL-28 is > 100 µM (inactive); in the test with SNB-75, > 100 µM (inactive); in the test with M14, > 100 µM (inactive); in the test with 786-0, > 100 µM (inactive); in the test with HCT-15, more than 100 µM; in the test with A549 it was > 100 µM (inactive). For the same compound, the GI50 with OVCAR-3, with HL-60, with Malme-3M, with UO-31, in the test with CCRF-CEM and in the test on ACHN was > 100 µM (inactive) in each case. Moreover, the GI50 in the test on KM12 and with IGROV-1 was > 100 µM (inactive) each time.

These data come from ChEMBL document CHEMBL1201862, “PubChem BioAssay data set” (2004).
